Where a SMILES comes first, the peptide text is derived from it. The star is where a group is joined. 5TAMRA = CN(C)c1ccc2c(c1)Oc1cc(N(C)C)ccc1C21OC(=O)c2cc(C(=O)*)ccc21; X1 = O=C(CON=CCO[C@H]1O[C@H](CO)[C@@H](O)[C@H](O)[C@@H]1O)*; X2 = CC(C)=NOCC(=O)*; Ahx = NCCCCCC(=O)O

The record followed here is patent publication EP3556767A1, “CELL PENETRATING PEPTIDES” (Universidade De Santiago De Compostela, priority 2018, dated 2019).

Data set [1] deals with HeLa cells. In words: Cell transport experiments (fluorescence microscopy, co-localization). Format: cell-based. The conditions noted are these: for transport of ConA: ConA labelled with Alexa Fluor-647. The method, then:
HeLa cells growing on four chamber glass bottom dishes were washed with HEPES-Krebs-Ringer (HKR) buffer (5 mM HEPES, 137 mM NaCl, 2.68 mM KCI, 2.05 mM MgCl2, 1.8 mM CaCl2, pH 7.4) and nuclei were stained by incubation with 1 µM Hoechst 33342 in HKR for 30 min. The CPP and protein were diluted in HKR and incubated for 7 min at room temperature to allow the formation of the complexes. Cells were washed with HKR and incubated with the complexes for another 30 min. Cells were washed again to remove excess peptide before performing epifluorescence microscopy using a Nikon Eclipse Ti-E inverted microscope or confocal microscopy with a Leica SP5 microscope. Images were analyzed with ImageJ and the co-localization parameters (Manders coefficients) were calculated using the Coloc2 plugin selecting the Costes method of threshold regression.

Data set [2] relates to HeLa cells. In words: Quantification of the uptake by flow cytometry. To be noted: TAMRA labelled peptides, 1, 3, 5, 7, 10 µM; Figure 3. The class given is cell-based. The method, then: For internalization standard assays we measured the amount of peptide fluorescence in cells by flow cytometry. Briefly, semiconfluent monolayers of HeLa cells seeded the day before were washed twice with HKR before incubation with different concentrations (1, 3, 5, 7, 10 µM) of TAMRA labelled peptides diluted in cell culture medium without serum for 1 hour at 37 °C . Then, cells were trypsinized with 100 µL of Trypsin-EDTA (Gibco) for 10 min at 37 °C, and trypsin neutralized with 100 µL of 2 % FBS in PBS with 5 mM EDTA. Pipetting broke cell clumps and the analysis was done in a Guava easyCyte™ cytometer. TAMRA levels were determined by excitation at 532 nm and detection at 575/25 nm. For the analysis, cells with typical FSC and SSC parameters were selected, and median fluorescence intensity was calculated for each sample. Data analysis was performed with InCyte software included in GuavaSoft 3.2 (Millipore).
The results of uptake of CPP P8 in HeLa, A-549 and SF9 are depicted in Figure 5: Uptake quantification by flow cytometry in three different cell lines: HeLa cells, A549 cells and Sf9 cells. Data points were collected in triplicate at six different concentrations (0, 1, 3, 5, 7, 10 µM). Cells were treated in DMEM (-) (HeLa, A549), or Sf-900-II (-) (Sf9) for 1 hour prior to trypsinization and cytometry quantification. Error bars indicate SD of three replicates.

Data set [3] in a line: Circular dichroism, percentage of helicity. Format: physicochemical. The conditions noted are these: 40°C; for % Helicity in Liposomes: egg yolk phosphatidylcholine liposomes. The method, then: Circular Dichroism (CD) measurements were performed with a Jasco J-1100 CD Spectrometer equipped with a Jasco MCB-100 Mini Circulation Bath for temperature control.
Circular dichroism measurements were carried out with the following settings: acquisition range: 300-190 nm; band width: 1.0 nm; accumulation: 3 scans; data pitch: 1 nm; CD scale 200 mdeg/1.0 dOD; D.I.T. (Data Integration Time): 1 s; scanning mode: continuous; scanning speed: 200 nm/min. Measurements were done from 10 °C to 60 °C (data interval: 10 °C; temp. gradient 5 °C/min) in a quartz cell of 0.2 cm path length at a final volume of 0.5 mL (H2O or TFE) with a final peptide concentration of 200 µM.
The results are expressed as the mean residue molar ellipticity [θ]MRt with units of degrees·cm^2.dmol^-1 and calculated using the equation S1.
The percentage of helicity was calculated using the equation S2. For the measurements in liposomes, samples were prepared by drying under reduced pressure L-α-phosphatidylcholine (16.7 µL, 25 mg/mL solution in CHCl3) and peptide (300 µL, 100 µM) in TFE to obtain a ratio lipid/peptide of 18:1 in a 10 mL round bottomed flask. The mixture was concentrated in a rotary evaporator to dryness, forming a film. The lipid/peptide mixture were suspended in HKR buffer (300 µL) to a final peptide concentration 100µM and sonicated for 45 min until a clear solution was obtained. Spectra were recorded in a 0.2 cm path length quartz cell. [formula]
Equation S1: Formula to calculate the ellipticity. θ is the ellipticity (mdeg), C is the peptide concentration (M) and I is the cell path length (cm). helicity % = (θMRt222nm−2340)/(30300) × 100 [formula]
Equation S2: Formula to calculate the percent of helicity in where the molar ellipticity at 222 nm is an absolute value.
In general terms: CD spectra are sensitive to the conformation of chiral molecules.

Data set [4] has as its system HeLa cells. Kind of data set: Viability in the presence of saporin (MTT). The class given is cell-based. To be noted: up to 30 µM, 1 h incubation, Figure 9. The method, then:
Saporin (253 aa, 28 kDa) is a toxic protein from the group of the ribosome-inactivating proteins (RIP), which is not capable of reaching the cytosol by itself, although it can be passively internalized by pinocytosis if it is found in the culture medium, being retained in endosomes. Incubation of the cells with this protein in the presence of an endosomolytic agent causes the release of the protein to the cytosol and cell death.
For the experiment, HeLa cells were incubated in a 96-well plate with 10 µg/mL of saporin, and increasing concentrations of the P8 and R8 acetylated peptides.
The cells were co-incubated with the protein and peptide for 1 h in culture medium without serum or antibiotics, at which time the compounds were removed, washed and complete medium was added for 6 h, to allow the maturation of the endosomes and the escape of the toxin. At that time, MTT (tetrazolium salt) was added, cells were further incubated for 3 h, and the medium removed before solubilizing the formazan salt with DMSO. This viability test measures the reduction of MTT to formazan by mitochondrial activity, which can then be quantified by absorbance.

Data set [5] concerns HeLa cells stably transfected with a plasmid carrying the LoxP-DsRED-STOP-LoxP-eGFP insert. In words: Cre recombinase protein cytosolic delivery (Cre Reporter system). Format: cell-based. To be noted: 1 µM Cre recombinase protein. The method, then:
In order to further test the capabilities of the CPPs of the invention to release macromolecules into the cytosol, a Cre recombinase delivery assay was done in the presence of P8. HeLa cells stably transfected with a plasmid carrying the LoxP-DsRED-STOP-LoxP-eGFP insert (Cre Reporter system) were incubated with 1 µM Cre recombinase protein and CPPs P8 or R8 at different concentrations.
These cells express normally the dsRED protein (red fluorescence), but when the Cre recombinase protein removes the dsRED ORF by recombination, the eGFP gene (green fluorescence) is expressed instead. Thus, the percentage of cells expressing eGFP can be used as a measure of the percentage of cells where the Cre Recombinase had been effectively released into the cytosol.

Data set [6] relates to endosomes. In words: Dextran escape from endosomes. Format: cell-based. To be noted: dextran 250 µg/ml; Figure 11. The protocol:
Dextran is a polysaccharide (in this case labeled with a green fluorescent probe) known to internalize cells through the endocytic pathway. Thus, if the CPPs of the invention are capable of inducing release of dextrane from endosomes into the cytosol, the cell will display diffuse green fluorescence. The experiment was run by incubating dextran (250 µg/ml) in the presence of 5 µM of a CPP: (i) P8 marked with TAMRA, (ii) acetylated P8, and (iii) R8 as comparison.

Where [7] appears, read: co-localization of peptide and ConA.

Take `CC(C)=NOCC(=O)NCCCC[C@H](NC(=O)[C@H](CCCNC(=N)N)NC(=O)CCCCCNC(=O)c1ccc2c(c1)C(=O)OC21c2ccc(N(C)C)cc2Oc2cc(N(C)C)ccc21)C(=O)N[C@@H](CC(C)C)C(=O)N[C@@H](CCCNC(=N)N)C(=O)N[C@@H](CCCNC(=N)N)C(=O)N[C@@H](CC(C)C)C(=O)N[C@@H](CC(C)C)C(=O)N[C@@H](CCCNC(=N)N)C(=O)N[C@@H](CCCNC(=N)N)C(=O)N[C@@H](CC(C)C)C(=O)N[C@@H](CCCCNC(=O)CON=C(C)C)C(=O)N[C@@H](CCCNC(=N)N)C(=O)N[C@@H](CC(C)C)C(N)=O` [TmP(Acetone)2, reference compound] ({5TAMRA-Ahx}-RK(X2)LRRLLRRLK(X2)RL-NH2): in data set [1], the “transport of ConA” value is recorded as “did not complex or transport ConA”.
Consider `CC(C)C[C@H](NC(=O)[C@H](CCCNC(=N)N)NC(=O)[C@H](CCCCNC(=O)CON=CCO[C@H]1O[C@H](CO)[C@@H](O)[C@H](O)[C@@H]1O)NC(=O)[C@H](CC(C)C)NC(=O)[C@H](CCCNC(=N)N)NC(=O)[C@H](CCCNC(=N)N)NC(=O)[C@H](CC(C)C)NC(=O)[C@H](CC(C)C)NC(=O)[C@H](CCCNC(=N)N)NC(=O)[C@H](CCCNC(=N)N)NC(=O)[C@H](CC(C)C)NC(=O)[C@H](CCCCNC(=O)CON=CCO[C@H]1O[C@H](CO)[C@@H](O)[C@H](O)[C@@H]1O)NC(=O)[C@H](CCCNC(=N)N)NC(=O)CCCCCNC(=O)c1ccc2c(c1)C(=O)OC21c2ccc(N(C)C)cc2Oc2cc(N(C)C)ccc21)C(N)=O` [TmP(Man)2] ({5TAMRA-Ahx}-RK(X1)LRRLLRRLK(X1)RL-NH2), for which the “transport of ConA” value in data set [1] was “the ConA cellular uptake was observed”. The “Manders coefficients (peptide and protein co-localization)” value in data set [1] (approximate value given in the text) is about 0.6. For the same compound, in data set [1] (setting [7]), the “Manders' tM1 (Peptide)” value was determined as 0.66 and the “Manders' tM2 (Protein)” value was 0.63.
Regarding TmHexL R A5L R A5L R [P5], the “uptake in living HeLa cells” value in data set [2] was “perform better in the uptake test”. Besides, in data set [3], the “% Helicity in water” value is reported as 19.3% and the “% Helicity in Liposomes” value stood at 29.5%.
For `CC(C)C[C@H](NC(=O)c1ccc2c(c1)C(=O)OC21c2ccc(N(C)C)cc2Oc2cc(N(C)C)ccc21)C(=O)N[C@@H](CCCNC(=N)N)C(=O)N[C@@H](C)C(=O)N[C@@H](CC(C)C)C(=O)N[C@@H](C)C(=O)N[C@@H](C)C(=O)N[C@@H](CC(C)C)C(=O)N[C@@H](C)C(=O)N[C@@H](CCCNC(=N)N)C(=O)N[C@@H](C)C(=O)N[C@@H](C)C(=O)N[C@@H](C)C(=O)N[C@@H](C)C(=O)N[C@@H](C)C(=O)N[C@@H](C)C(=O)N[C@@H](CCCNC(=N)N)C(N)=O` [P8, TmL R ALAALA R A6 R] (5TAMRA-LRALAALARAAAAAAR-NH2), the “toxicity to HeLa cells, peptide alone” value in data set [4] is recorded as “little or no toxicity”.
Consider “Ac-LRALAALARAAAAAAR-NH2 [acetylated P8, AcL R ALAALA R A6 R]”, for which the “peptide concentration at the maximum percentage of eGFP expressing cells” value in data set [5] was determined as 10 µM. Moreover, the “maximum percentage of eGFP expressing cells” value in data set [5] (Figure 10) is given as 35%. Further, the “concentration at which the peptide starts to release the dextran into the cytosol” value in data set [6] turned out to be 10 µM.
As for TmHexA R AALLAA R AALA3 R [P3], in data set [3], the “% Helicity in water” value is given as 21.7% and the “% Helicity in Liposomes” value is 12.7%.
As for TmHexA R ALAALA R ALA4 R [P6], the “uptake in living HeLa cells” value in data set [2] is given as “perform better in the uptake test”. Further, in data set [3], the “% Helicity in water” value is 35.1% and the “% Helicity in Liposomes” value was 29.9%.
